From patent US9006221B2, “Method of modulating ship activity” (H. Lee Moffitt Cancer Center and Reserach Institute, Inc., priority 2008, dated 2015)

Assays:
MG63 cells = test: MTT cell viability assay, MG63; assay type: cell-based; settings: MG63, lacks SHIP1 expression, 36 hours
Procedure: (A) SHIP1 expression in KG1 and MG63 cells was determined by Western blotting (top). Membranes were reprobed with antibodies against b-actin to confirm equal loading (lower panel). One representative blot of 2 individual experiments is shown. (B) KG1 and MG63 cells were plated in duplicate in 96 well plates, and treated for 36 hours with increasing concentrations of the 3α-aminocholestane. Cell viability was assessed by MTT assay. Results represent the mean of three individual experiments. (C) KG1 cells were treated with increasing concentrations of 3α-aminocholestane for 36 hours and hallmarks of apoptosis were identified in cell lysates by Western Blot analysis. […] (D) KG1 cells were treated with increasing concentrations of 3α-aminocholestane, and the percentage of AnnexinV and PI positive cells was determined by FACS analysis. […]
Cell viability assay: Cells were treated in duplicate for 36 hours with increasing concentrations of 3α-aminocholestane or vehicle. […] Formed crystals were dissolved in dimethyl sulfoxide and optical density (OD) was measured at 570 nm. The OD of compound treated cells was divided by the OD of their vehicle control, and the viability was expressed as a percentage of untreated cells. Results are expressed as mean±SEM of three individual experiments.

SHIP1 = target: T1, SHIP1 (Mus musculus, UniProt Q9ES52); test: Malachite Green phosphate release assay, SHIP1; assay type: biochemical; settings: at 1 mM
T1 construct: The asterisk in lanes 1 and 3 indicates the ˜145 kD full-length SHIP protein; His tag (C); made in house; host or cells: E. coli Rosetta-Gami 2 (DE3) pLys
T1 sequence (Q9ES52 1-1191): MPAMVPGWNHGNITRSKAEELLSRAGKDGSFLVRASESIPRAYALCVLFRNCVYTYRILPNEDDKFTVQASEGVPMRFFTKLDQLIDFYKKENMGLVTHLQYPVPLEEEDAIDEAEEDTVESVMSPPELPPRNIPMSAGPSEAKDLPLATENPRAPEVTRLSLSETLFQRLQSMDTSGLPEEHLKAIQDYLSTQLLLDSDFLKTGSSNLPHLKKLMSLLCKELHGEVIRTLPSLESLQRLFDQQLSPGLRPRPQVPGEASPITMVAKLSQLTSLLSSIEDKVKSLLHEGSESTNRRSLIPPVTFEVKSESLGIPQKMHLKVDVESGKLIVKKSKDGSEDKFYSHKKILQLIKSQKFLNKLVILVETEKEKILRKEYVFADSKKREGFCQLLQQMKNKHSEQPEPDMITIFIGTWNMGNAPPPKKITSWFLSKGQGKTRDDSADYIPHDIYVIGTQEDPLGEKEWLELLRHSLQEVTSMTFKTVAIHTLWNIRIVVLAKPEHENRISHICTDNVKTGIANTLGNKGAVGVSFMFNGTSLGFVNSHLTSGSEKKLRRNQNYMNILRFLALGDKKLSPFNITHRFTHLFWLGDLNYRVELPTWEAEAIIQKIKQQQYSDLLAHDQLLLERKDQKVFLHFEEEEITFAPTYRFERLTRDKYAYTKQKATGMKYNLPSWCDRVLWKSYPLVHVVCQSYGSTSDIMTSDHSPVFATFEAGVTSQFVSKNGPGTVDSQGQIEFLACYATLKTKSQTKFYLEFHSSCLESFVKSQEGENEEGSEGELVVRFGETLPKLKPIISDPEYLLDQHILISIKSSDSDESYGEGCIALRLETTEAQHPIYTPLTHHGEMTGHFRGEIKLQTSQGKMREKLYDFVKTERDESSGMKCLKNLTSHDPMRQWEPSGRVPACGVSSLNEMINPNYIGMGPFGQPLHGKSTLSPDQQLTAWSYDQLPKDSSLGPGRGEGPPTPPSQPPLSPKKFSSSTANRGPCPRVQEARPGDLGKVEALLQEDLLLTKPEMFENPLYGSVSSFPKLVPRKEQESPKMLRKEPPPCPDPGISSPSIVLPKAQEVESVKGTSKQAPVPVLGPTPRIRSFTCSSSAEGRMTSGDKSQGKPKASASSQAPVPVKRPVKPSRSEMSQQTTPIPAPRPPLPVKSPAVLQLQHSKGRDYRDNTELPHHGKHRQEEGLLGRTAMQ

`CC(C)CCC[C@@H](C)[C@H]1CC[C@H]2[C@@H]3CC[C@H]4C[C@H](N)CC[C@]4(C)[C@H]3CC[C@]12C` [NSC23922, (3R,5S,8R,9S,10S,13R,14S,17R)-10,13-dimethyl-17-[(2R)-6-methylheptan-2-yl]-2,3,4,5,6,7,8,9,11,12,14,15,16,17-tetradecahydro-1H-cyclopenta[a]phenanthren-3-amine] was tested, and the “growth and survival of cells (MTT viability)” value (MG63 cells) was “not in cells that lacks SHIP1 expression” and the “inhibition of SHIP1” value (SHIP1) was “full inhibition”.
